Experimental data: ChEMBL document CHEMBL1134253, “HIV Rev peptides conjugated with peptide nucleic acids and their efficient binding to RRE RNA” (Bioorg Med Chem Lett, 2001)

How the values were obtained:
[1] = tested on: Rev responsive element (RRE) RNA; experiment: Ratio of the dissociation constant between Rev37-50 and the PNA-peptide; type: nucleic-acid assay
[2] = biological target: Rev responsive element (RRE) RNA; experiment: Dissociation constant of compound with Rev-responsive element (RRE) IIB RNA was determined by the competition assay; type: nucleic-acid assay

| Ratio [1] | Kd [2] | SMILES |
| --- | --- | --- |
| 5.4 | 16 nM | C[C@H](NC(=O)CN(CCNC(=O)CN(CCNC(=O)CCC(=O)O)C(=O)Cn1cnc2c(=O)[nH]c(N)nc21)C(=O)Cn1ccc(N)nc1=O)C(=O)N[C@@H](CCCNC(=N)N)C(=O)N[C@@H](CCCNC(=N)N)C(=O)N[C@@H](CC(N)=O)C(=O)N[C@@H](CCCNC(=N)N)C(=O)N[C@@H](CCCNC(=N)N)C(=O)N[C@@H](CCCNC(=N)N)C(=O)N[C@@H](CCCNC(=N)N)C(=O)N[C@@H](Cc1c[nH]c2ccccc12)C(=O)N[C@@H](CCCNC(=N)N)C(=O)N[C@@H](CCC(=O)O)C(=O)N[C@@H](CCCNC(=N)N)C(=O)N[C@@H](CCC(N)=O)C(=O)N[C@H](CCCNC(=N)N)C(N)=O |
| 2 | 44 nM | CC(=O)N(CCNC(=O)NCC(=O)O)CC(=O)N[C@H](C)C(=O)N[C@@H](CCCNC(=N)N)C(=O)N[C@@H](CCCNC(=N)N)C(=O)N[C@@H](CC(N)=O)C(=O)N[C@@H](CCCNC(=N)N)C(=O)N[C@@H](CCCNC(=N)N)C(=O)N[C@@H](CCCNC(=N)N)C(=O)N[C@@H](CCCNC(=N)N)C(=O)N[C@@H](Cc1c[nH]c2ccccc12)C(=O)N[C@@H](CCCNC(=N)N)C(=O)N[C@@H](CCC(=O)O)C(=O)N[C@@H](CCCNC(=N)N)C(=O)N[C@@H](CCC(N)=O)C(=O)N[C@H](CCCNC(=N)N)C(N)=O |
